Test results: US8012979B2, “Compounds and their uses 707” (AstraZeneca AB, priority 2007, dated 2011)

target: T1, human active recombinant p38α-6His tagged (Homo sapiens, UniProt Q16539); test: p38 Alpha Enzyme Assay (AlphaScreen, biotinylated-ATF2 substrate); assay type: biochemical; details: pre-incubated 4 hours at 37° C., reaction initiated with ATP; 0.5 nM enzyme; read-out: p38 pIC50 (converted)
T1 construct: 6His
T1 sequence (Q16539 whole entry): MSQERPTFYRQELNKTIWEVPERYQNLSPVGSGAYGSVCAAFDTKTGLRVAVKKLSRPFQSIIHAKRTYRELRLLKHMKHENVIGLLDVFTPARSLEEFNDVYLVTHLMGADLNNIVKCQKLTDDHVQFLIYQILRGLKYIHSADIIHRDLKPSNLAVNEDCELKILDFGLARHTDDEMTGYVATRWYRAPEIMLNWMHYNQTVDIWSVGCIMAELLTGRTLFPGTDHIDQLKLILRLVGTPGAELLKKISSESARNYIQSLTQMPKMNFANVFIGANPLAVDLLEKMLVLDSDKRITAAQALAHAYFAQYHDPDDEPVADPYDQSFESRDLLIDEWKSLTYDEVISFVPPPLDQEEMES

IC50 [nM]	Compound
0.316	Cc1c(F)cc(C(=O)NC2CC2)cc1-c1ccc2c(=O)n(CC3CC3)cc(CN3C[C@@H](C)N[C@@H](C)C3)c2c1 [Example 80, N-Cyclopropyl-3-(2-(cyclopropylmethyl)-4-(((3S,5R)-3,5-dimethylpiperazin-1-yl)methyl)-1-oxo-1,2-dihydroisoquinolin-6-yl)-5-fluoro-4-methylbenzamide]
0.1	CNC1CCN(Cc2cn(CC3CC3)c(=O)c3ccc(-c4cc(C(=O)NC5CC5)cc(F)c4C)cc23)CC1 [Example 81, N-Cyclopropyl-3-(2-(cyclopropylmethyl)-4-((4-(methylamino)piperidin-1-yl)methyl)-1-oxo-1,2-dihydroisoquinolin-6-yl)-5-fluoro-4-methylbenzamide]
0.1	Cc1c(F)cc(C(=O)NC2CC2)cc1-c1ccc2c(=O)n(CC3CC3)cc(CN3CCN[C@@H](C)C3)c2c1 [Example 82, (S)—N-Cyclopropyl-3-(2-(cyclopropylmethyl)-4-((3-methylpiperazin-1-yl)methyl)-1-oxo-1,2-dihydroisoquinolin-6-yl)-5-fluoro-4-methylbenzamide]
0.0794	Cc1c(F)cc(C(=O)NC2CC2)cc1-c1ccc2c(=O)n(CC3CC3)cc(CN3CCC(N)CC3)c2c1 [Example 83, 3-(4-((4-Aminopiperidin-1-yl)methyl)-2-(cyclopropylmethyl)-1-oxo-1,2-dihydroisoquinolin-6-yl)-N-cyclopropyl-5-fluoro-4-methylbenzamide]
0.2	Cc1c(F)cc(C(=O)NC2CC2)cc1-c1ccc2c(=O)n(CC3CC3)cc(CN3CCC(NC(C)C)CC3)c2c1 [Example 84, N-Cyclopropyl-3-(2-(cyclopropylmethyl)-4-((4-(isopropylamino)piperidin-1-yl)methyl)-1-oxo-1,2-dihydroisoquinolin-6-yl)-5-fluoro-4-methylbenzamide]
0.0398	Cc1c(F)cc(C(=O)NC2CC2)cc1-c1ccc2c(=O)n(CC3CC3)cc(CN3CCN[C@@H](CO)C3)c2c1 [Example 85, (R)—N-Cyclopropyl-3-(2-(cyclopropylmethyl)-4-((3-(hydroxymethyl)piperazin-1-yl)methyl)-1-oxo-1,2-dihydroisoquinolin-6-yl)-5-fluoro-4-methylbenzamide]
0.0794	Cc1c(F)cc(C(=O)NC2CC2)cc1-c1ccc2c(=O)n(CC3CC3)cc(CN3CCNC[C@H]3C)c2c1 [Example 86, (R)—N-Cyclopropyl-3-(2-(cyclopropylmethyl)-4-((2-methylpiperazin-1-yl)methyl)-1-oxo-1,2-dihydroisoquinolin-6-yl)-5-fluoro-4-methylbenzamide]
0.0631	Cc1c(F)cc(C(=O)NC2CC2)cc1-c1ccc2c(=O)n(CC3CC3)cc(CN3CCN(C)[C@@H](CO)C3)c2c1 [Example 87, (R)—N-Cyclopropyl-3-(2-(cyclopropylmethyl)-4-((3-(hydroxymethyl)-4-methylpiperazin-1-yl)methyl)-1-oxo-1,2-dihydroisoquinolin-6-yl)-5-fluoro-4-methylbenzamide]
0.0631	Cc1c(F)cc(C(=O)NC2CC2)cc1-c1ccc2c(=O)n(CC3CC3)cc(CN3CCNCC3)c2c1 [Example 88, N-Cyclopropyl-3-(2-(cyclopropylmethyl)-1-oxo-4-(piperazin-1-ylmethyl)-1,2-dihydroisoquinolin-6-yl)-5-fluoro-4-methylbenzamide]
0.794	Cc1c(F)cc(C(=O)NC2CC2)cc1-c1ccc2c(=O)n(CC3CC3)cc(CNCC3CCNCC3)c2c1 [Example 89, N-Cyclopropyl-3-(2-(cyclopropylmethyl)-1-oxo-4-((piperidin-4-ylmethylamino)methyl)-1,2-dihydroisoquinolin-6-yl)-5-fluoro-4-methylbenzamide]
0.158	Cc1c(F)cc(C(=O)NC2CC2)cc1-c1ccc2c(=O)n(CC3CC3)cc(CN3CCN(CCO)CC3)c2c1 [Example 90, N-Cyclopropyl-3-(2-(cyclopropylmethyl)-4-((4-(2-hydroxyethyl)piperazin-1-yl)methyl)-1-oxo-1,2-dihydroisoquinolin-6-yl)-5-fluoro-4-methylbenzamide]
7.94	CCN1CCC(CNCc2cn(CC3CC3)c(=O)c3ccc(-c4cc(C(=O)NC5CC5)cc(F)c4C)cc23)CC1 [Example 91, N-Cyclopropyl-3-(2-(cyclopropylmethyl)-4-(((1-ethylpiperidin-4-yl)methylamino)methyl)-1-oxo-1,2-dihydroisoquinolin-6-yl)-5-fluoro-4-methylbenzamide]
0.1	Cc1c(F)cc(C(=O)NC2CC2)cc1-c1ccc2c(=O)n(CC3CC3)cc(CN3CCCNCC3)c2c1 [Example 92, 3-(4-((1,4-Diazepan-1-yl)methyl)-2-(cyclopropylmethyl)-1-oxo-1,2-dihydroisoquinolin-6-yl)-N-cyclopropyl-5-fluoro-4-methylbenzamide]
2	Cc1ccc(C(=O)NC2CC2)cc1-c1ccc2c(=O)n(Cc3cccc(OCCCN(C)C)c3)cc(C)c2c1 [Example 93, N-Cyclopropyl-3-(2-(3-(3-(dimethylamino)propoxy)benzyl)-4-methyl-1-oxo-1,2-dihydroisoquinolin-6-yl)-4-methylbenzamide]
3.16	Cc1ccc(C(=O)NC2CC2)cc1-c1ccc2c(=O)n(Cc3cccc(OCCCN(C)C)c3)c(C)cc2c1 [Example 94, N-Cyclopropyl-3-(2-(3-(3-(dimethylamino)propoxy)benzyl)-3-methyl-1-oxo-1,2-dihydroisoquinolin-6-yl)-4-methylbenzamide]
2.51	Cc1ccc(C(=O)NC2CC2)cc1-c1ccc2c(=O)n(Cc3ccc(CN(C)C)cc3)cc(C)c2c1 [Example 95, N-Cyclopropyl-3-(2-(4-((dimethylamino)methyl)benzyl)-4-methyl-1-oxo-1,2-dihydroisoquinolin-6-yl)-4-methylbenzamide]
10	Cc1ccc(C(=O)NC2CC2)cc1-c1ccc2c(=O)n(Cc3ccc(CN(C)C)cc3)c(C)cc2c1 [Example 96, N-Cyclopropyl-3-(2-(4-((dimethylamino)methyl)benzyl)-3-methyl-1-oxo-1,2-dihydroisoquinolin-6-yl)-4-methylbenzamide]
0.251	Cc1ccc(C(=O)NC2CC2)cc1-c1ccc2c(=O)n(Cc3ccc(C4CCNCC4)cc3)cc(C)c2c1 [Example 97, N-Cyclopropyl-4-methyl-3-(4-methyl-1-oxo-2-(4-(piperidin-4-yl)benzyl)-1,2-dihydroisoquinolin-6-yl)benzamide]
2.51	Cc1ccc(C(=O)NC2CC2)cc1-c1ccc2c(=O)n(Cc3ccc(C4CCNCC4)cc3)c(C)cc2c1 [Example 98, N-Cyclopropyl-4-methyl-3-(3-methyl-1-oxo-2-(4-(piperidin-4-yl)benzyl)-1,2-dihydroisoquinolin-6-yl)benzamide]
0.398	Cc1ccc(C(=O)NC2CC2)cc1-c1ccc2c(=O)n(Cc3ccccc3)cc(CCCN(C)C)c2c1 [Example 99, 3-(2-Benzyl-4-(3-(dimethylamino)propyl)-1-oxo-1,2-dihydroisoquinolin-6-yl)-N-cyclopropyl-4-methylbenzamide]
1	Cc1ccc(C(=O)NC2CC2)cc1-c1ccc2c(=O)n(Cc3ccccc3)cc(CCCN3CCCC3)c2c1 [Example 100, 3-(2-Benzyl-1-oxo-4-(3-(pyrrolidin-1-yl)propyl)-1,2-dihydroisoquinolin-6-yl)-N-cyclopropyl-4-methylbenzamide]
3.16	Cc1ccc(C(=O)NC2CC2)cc1-c1ccc2c(=O)n(CC3CC3)cc(COCCN(C)C)c2c1 [Example 101, N-Cyclopropyl-3-(2-(cyclopropylmethyl)-4-((2-(dimethylamino)ethoxy)methyl)-1-oxo-1,2-dihydroisoquinolin-6-yl)-4-methylbenzamide]
0.0501	Cc1c(F)cc(C(=O)NC2CC2)cc1-c1ccc2c(=O)n(CC3CC3)cc(CN3CCN[C@H](CO)C3)c2c1 [Example 102, (S)—N-Cyclopropyl-3-(2-(cyclopropylmethyl)-4-((3-(hydroxymethyl)piperazin-1-yl)methyl)-1-oxo-1,2-dihydroisoquinolin-6-yl)-5-fluoro-4-methylbenzamide]
0.126	Cc1ccc(C(=O)NC2CC2)cc1-c1ccc2c(=O)n(Cc3ccc(S(C)(=O)=O)cc3)cc(CN3CCCN(C)CC3)c2c1 [Example 103, N-Cyclopropyl-4-methyl-3-(4-((4-methyl-1,4-diazepan-1-yl)methyl)-2-(4-(methylsulfonyl)benzyl)-1-oxo-1,2-dihydroisoquinolin-6-yl)benzamide]
0.2	Cc1ccc(C(=O)NC2CC2)cc1-c1ccc2c(=O)n(Cc3ccc(C(=O)O)cc3)cc(CN3CCCN(C)CC3)c2c1 [Example 104, 4-((6-(5-(Cyclopropylcarbamoyl)-2-methylphenyl)-((4-methyl-1,4-diazepan-1-yl)methyl)-1-oxoisoquinolin-2(1H)-yl)methyl)benzoic acid]
0.158	Cc1ccc(C(=O)NC2CC2)cc1-c1ccc2c(=O)n(Cc3ccc(C(=O)N(C)C)cc3)cc(CN3CCCN(C)CC3)c2c1 [Example 105, N-Cyclopropyl-3-(2-(4-(dimethylcarbamoyl)benzyl)-4-((4-methyl-1,4-diazepan-1-yl)methyl)-1-oxo-1,2-dihydroisoquinolin-6-yl)-4-methylbenzamide]
0.316	CN[C@@H]1CCN(Cc2cn(CC3CC3)c(=O)c3ccc(-c4cc(C(=O)NC5CC5)cc(F)c4C)cc23)C1 [Example 106, (R)—N-Cyclopropyl-3-(2-(cyclopropylmethyl)-4-((3-(methylamino)pyrrolidin-1-yl)methyl)-1-oxo-1,2-dihydroisoquinolin-6-yl)-5-fluoro-4-methylbenzamide]
0.794	Cc1c(F)cc(C(=O)NC2CC2)cc1-c1ccc2c(=O)n(CC3CC3)cc(CN3CCN[C@H](C)C3)c2c1 [Example 107, (R)—N-Cyclopropyl-3-(2-(cyclopropylmethyl)-4-((3-methylpiperazin-1-yl)methyl)-1-oxo-1,2-dihydroisoquinolin-6-yl)-5-fluoro-4-methylbenzamide]
0.0631	Cc1c(F)cc(C(=O)NC2CC2)cc1-c1ccc2c(=O)n(CC3CC3)cc(CN3CCNC[C@H]3CO)c2c1 [Example 108, (S)—N-Cyclopropyl-3-(2-(cyclopropylmethyl)-4-((2-(hydroxymethyl)piperazin-1-yl)methyl)-1-oxo-1,2-dihydroisoquinolin-6-yl)-5-fluoro-4-methylbenzamide]
